Results from the supplement of paper PMC12533247.

Legend:
[1] = system: HSV-1 K26-GFP infected 3D skin equivalent; test: % activity on HSV-1 GFP signal (0 = infected DMSO control, -100 = uninfected control); higher = higher signal (negative = inhibition / toxicity); settings: time (h post infection): 48
Description: (§1)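 Triplicate dose-response (0.04 to 10 uM) of 11 top compounds in 3D bioprinted skin equivalents (submerged and ALI models) infected with GFP-HSV-1 K26 at MOI 0.1 and fixed at 48 hpi. GFP (virus) and tdTomato (fibroblast viability) signals are normalised to per-plate controls.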

[2] = system: HSV-1 K26-GFP infected primary human skin cells; test: % change of HSV-1 GFP signal vs untreated infected cells; higher = less antiviral inhibition
Description: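 2D primary donor-derived keratinocytes (read at 20 hpi) and donor-matched dermal fibroblasts (read at 48 hpi) infected with GFP-HSV-1 K26 at MOI 1 and treated 1 h later with compound dilutions. IncuCyte GFP integrated intensity is normalised by subtracting mock-infected wells and dividing by untreated infected wells, shown as % change (-100 = full inhibition).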

[3] = system: HSV-1 K26-GFP infected 3D skin equivalent; test: % change of tdTomato fibroblast signal relative to infected DMSO control; higher = higher signal (negative = inhibition / toxicity); settings: time (h post infection): 48
Description: as §1

[4] = system: HSV-1 K26-GFP infected primary human skin cells; test: % change of HSV-1 GFP signal vs untreated infected cells; higher = less antiviral inhibition; settings: cell type: primary dermal fibroblasts, time (h post infection): 48
Description: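 2D primary donor-derived dermal fibroblasts infected with GFP-HSV-1 K26 at MOI 1, treated 1 h later with compound dilutions and read at 48 hpi on IncuCyte. GFP integrated intensity is normalised to mock-infected and untreated infected wells (% change; -100 = full inhibition).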

CC1(C)CC(=O)c2c(C(F)(F)F)nn(-c3ccc(C(N)=O)c(N[C@H]4CC[C@H](O)CC4)c3)c2C1 [SNX-2112]
Settings | % activity on HSV-1 GFP signal [%] | % change of HSV-1 GFP signal [%] | % change of tdTomato fibroblast signal [%]
[1], 0.041152 µM, model: ALI | -92.8 | – | –
[1], 0.041152 µM, model: submerged | -58.7 | – | –
[1], 0.123457 µM, model: ALI | -99.7 | – | –
[1], 0.123457 µM, model: submerged | -81.7 | – | –
[1], 0.37037 µM, model: ALI | -98.9 | – | –
[1], 0.37037 µM, model: submerged | -98.1 | – | –
[1], 1.111111 µM, model: ALI | -103 | – | –
[1], 1.111111 µM, model: submerged | -101 | – | –
[1], 3.33333 µM, model: ALI | -98.4 | – | –
[1], 3.33333 µM, model: submerged | -105 | – | –
[1], 10 µM, model: ALI | -107 | – | –
[1], 10 µM, model: submerged | -102 | – | –
[3], 0.041152 µM, model: ALI | – | – | 0.975
[3], 0.041152 µM, model: submerged | – | – | -4.63
[3], 0.123457 µM, model: ALI | – | – | -7.26
[3], 0.123457 µM, model: submerged | – | – | -2.18
[3], 0.37037 µM, model: ALI | – | – | -17.9
[3], 0.37037 µM, model: submerged | – | – | -23.3
[3], 1.111111 µM, model: ALI | – | – | -33.5
[3], 1.111111 µM, model: submerged | – | – | -52.2
[3], 3.33333 µM, model: ALI | – | – | -36.3
[3], 3.33333 µM, model: submerged | – | – | -55
[3], 10 µM, model: ALI | – | – | -32.3
[3], 10 µM, model: submerged | – | – | -50.9
[4], 0.001 µM, donor: 3 | – | 3.58 | –
[4], 0.001 µM, donor: 4 | – | 7.21 | –
[4], 0.003 µM, donor: 3 | – | 2.41 | –
[4], 0.003 µM, donor: 4 | – | 7.68 | –
[4], 0.0091 µM, donor: 3 | – | 3.09 | –
[4], 0.0091 µM, donor: 4 | – | 10 | –
[4], 0.0274 µM, donor: 3 | – | -21.5 | –
[4], 0.0274 µM, donor: 4 | – | -8.2 | –
[4], 0.0823 µM, donor: 3 | – | -87.9 | –
[4], 0.0823 µM, donor: 4 | – | -77.6 | –
[4], 0.2469 µM, donor: 3 | – | -98.67 | –
[4], 0.2469 µM, donor: 4 | – | -98.8 | –
[4], 0.7407 µM, donor: 3 | – | -99.34 | –
[4], 0.7407 µM, donor: 4 | – | -99.59 | –
[4], 2.2222 µM, donor: 3 | – | -99.32 | –
[4], 2.2222 µM, donor: 4 | – | -99.73 | –
[4], 6.6667 µM, donor: 3 | – | -99.47 | –
[4], 6.6667 µM, donor: 4 | – | -99.66 | –
[4], 20 µM, donor: 3 | – | -99.48 | –
[4], 20 µM, donor: 4 | – | -99.71 | –

% change of HSV-1 GFP signal [%], [2]
Settings | 0.001 µM | 0.003 µM | 0.0091 µM | 0.0274 µM | 0.0823 µM | 0.2469 µM | 0.7407 µM | 2.2222 µM | 6.6667 µM | 20 µM
cell type: primary dermal fibroblasts, donor: 5, time (h post infection): 48 | – | -7.73 | -15.6 | -26.2 | -67.5 | -95.5 | -98.7 | -98.8 | -99.29 | -98.8
cell type: primary keratinocytes, donor: 3, time (h post infection): 20 | 9.13 | 13.4 | 18.9 | 18.3 | -27.7 | -93.6 | -99.06 | -99.56 | -99.47 | -99.7
cell type: primary keratinocytes, donor: 4, time (h post infection): 20 | 9.33 | 1.99 | -3 | -5.23 | -58 | -98.23 | -99.906 | -100.1 | -100.02 | -100
cell type: primary keratinocytes, donor: 5, time (h post infection): 20 | 8.24 | -1.8 | -0.244 | -15.1 | -81.52 | -98.96 | -99.957 | -99.916 | -99.948 | -99.936

C=CC(=O)N1CC/C(=C\c2ccc(F)c([N+](=O)[O-])c2)C(=O)/C(=C/c2ccc(F)c([N+](=O)[O-])c2)C1 [VLX1570]
Settings | % activity on HSV-1 GFP signal, [1] [%] | % change of tdTomato fibroblast signal, [3] [%]
0.041152 µM, model: ALI | 12.8 | -0.238
0.041152 µM, model: submerged | -7.34 | 0.174
0.123457 µM, model: ALI | -18.6 | -3.26
0.123457 µM, model: submerged | -4.05 | -4.91
0.37037 µM, model: ALI | -96 | -1.14
0.37037 µM, model: submerged | -5.03 | -4.63
1.111111 µM, model: ALI | -97.3 | -12.1
1.111111 µM, model: submerged | -4.45 | -15
3.33333 µM, model: ALI | -103 | -17.4
3.33333 µM, model: submerged | -17.6 | -33.6
10 µM, model: ALI | -101 | -25.4
10 µM, model: submerged | -55.5 | -48

% change of HSV-1 GFP signal [%], [2]
Settings | 0.001 µM | 0.003 µM | 0.0091 µM | 0.0274 µM | 0.0823 µM | 0.2469 µM | 0.7407 µM | 2.2222 µM | 6.6667 µM | 20 µM
cell type: primary dermal fibroblasts, donor: 5, time (h post infection): 48 | 1.14 | -5.38 | -8.21 | -7.07 | -8.61 | -9.37 | -7.7 | -10.9 | -99.906 | -99.87
cell type: primary keratinocytes, donor: 3, time (h post infection): 20 | 3.39 | 0.794 | 7.81 | 21.4 | 8.28 | 2.87 | 4.02 | -1.2 | -51.7 | -92.7
cell type: primary keratinocytes, donor: 4, time (h post infection): 20 | -7.51 | -5.56 | -6.93 | -1.76 | -3.15 | -3.18 | 6.11 | -25 | -97.4 | -100
cell type: primary keratinocytes, donor: 5, time (h post infection): 20 | 4.93 | 5.79 | 3.47 | 7.82 | 7.36 | 5.33 | 1.2 | -8.44 | -91.4 | -99.966

O=C(/C=C\n1cnc(-c2cc(C(F)(F)F)cc(C(F)(F)F)c2)n1)NNc1ccccn1 [Verdinexor]
Settings | % activity on HSV-1 GFP signal [%] | % change of HSV-1 GFP signal [%] | % change of tdTomato fibroblast signal [%]
[1], 0.041152 µM, model: ALI | 22.5 | – | –
[1], 0.041152 µM, model: submerged | -2.17 | – | –
[1], 0.123457 µM, model: ALI | -30.1 | – | –
[1], 0.123457 µM, model: submerged | -37 | – | –
[1], 0.37037 µM, model: ALI | -82.5 | – | –
[1], 0.37037 µM, model: submerged | -41.1 | – | –
[1], 1.111111 µM, model: ALI | -92.6 | – | –
[1], 1.111111 µM, model: submerged | -56.4 | – | –
[1], 3.33333 µM, model: ALI | -105 | – | –
[1], 3.33333 µM, model: submerged | -65.7 | – | –
[1], 10 µM, model: ALI | -108 | – | –
[1], 10 µM, model: submerged | -68.6 | – | –
[3], 0.041152 µM, model: ALI | – | – | 8.09
[3], 0.041152 µM, model: submerged | – | – | 8.73
[3], 0.123457 µM, model: ALI | – | – | -4.16
[3], 0.123457 µM, model: submerged | – | – | -8.13
[3], 0.37037 µM, model: ALI | – | – | -13.3
[3], 0.37037 µM, model: submerged | – | – | -4.26
[3], 1.111111 µM, model: ALI | – | – | -11.7
[3], 1.111111 µM, model: submerged | – | – | -2.44
[3], 3.33333 µM, model: ALI | – | – | -19.1
[3], 3.33333 µM, model: submerged | – | – | -1.43
[3], 10 µM, model: ALI | – | – | -6.29
[3], 10 µM, model: submerged | – | – | -5.83
[4], 0.001 µM, donor: 3 | – | 2.8 | –
[4], 0.001 µM, donor: 4 | – | -3.59 | –
[4], 0.003 µM, donor: 3 | – | 3.24 | –
[4], 0.003 µM, donor: 4 | – | -6.87 | –
[4], 0.0091 µM, donor: 3 | – | 5.63 | –
[4], 0.0091 µM, donor: 4 | – | -5.59 | –
[4], 0.0274 µM, donor: 3 | – | 3.47 | –
[4], 0.0274 µM, donor: 4 | – | -11.5 | –
[4], 0.0823 µM, donor: 3 | – | -1.6 | –
[4], 0.0823 µM, donor: 4 | – | -10.8 | –
[4], 0.2469 µM, donor: 3 | – | -1.84 | –
[4], 0.2469 µM, donor: 4 | – | -12 | –
[4], 0.7407 µM, donor: 3 | – | -13.6 | –
[4], 0.7407 µM, donor: 4 | – | -15.2 | –
[4], 2.2222 µM, donor: 3 | – | -31.7 | –
[4], 2.2222 µM, donor: 4 | – | -33.3 | –
[4], 6.6667 µM, donor: 3 | – | -34.8 | –
[4], 6.6667 µM, donor: 4 | – | -32.3 | –
[4], 20 µM, donor: 3 | – | -49 | –
[4], 20 µM, donor: 4 | – | -21.8 | –

% change of HSV-1 GFP signal [%], [2]
Settings | 0.001 µM | 0.003 µM | 0.0091 µM | 0.0274 µM | 0.0823 µM | 0.2469 µM | 0.7407 µM | 2.2222 µM | 6.6667 µM | 20 µM
cell type: primary dermal fibroblasts, donor: 5, time (h post infection): 48 | -15.5 | -14.5 | -9.81 | -15.2 | -14.8 | -16.9 | -28.1 | -45.5 | -46.8 | -46.5
cell type: primary keratinocytes, donor: 3, time (h post infection): 20 | 17.4 | 18.1 | 8.7 | 2.9 | 12.9 | 9.98 | -22.6 | -68.6 | -87.6 | -92
cell type: primary keratinocytes, donor: 4, time (h post infection): 20 | -13.1 | -10.8 | -21.9 | -29.6 | -15.4 | -22.4 | -47.4 | -82.8 | -95.8 | -97.6
cell type: primary keratinocytes, donor: 5, time (h post infection): 20 | 6.47 | 3.84 | 3.12 | 6.11 | 10.5 | 3.84 | 8.2 | -36.4 | -76.6 | -94.9
